Results taken from patent US11116781B2, “Composition, containing Loganin or a derivative thereof as an active ingredient for preventing, remedying, or treating female climacteric syndrome” (NINE B CO., LTD., priority 2016, dated 2021).

Key:
Assay type in all cases: in vivo
[1] = system: ovariectomized ddY female mouse (OVX mouse); assay: Blood estradiol, progesterone and cortisol by ELISA in female climacteric (OVX) mouse model; conditions: 10 mg/kg/day oral, 12 weeks; for decrease level of estradiol (17β-estradiol, E2) in the blood: vs. OVX negative control (FIG. 6a); for decrease level of progesterone in the blood: vs. OVX negative control (FIG. 6b)
Description: (§1) A 10-week-old ovariectomized ddY female mouse (OVX mouse) was used as a climacteric animal model to evaluate the in vivo efficacy of Loganin (ovariectomy after 8 weeks and 2 weeks of additional feeding for recovering conditions). Sham mouse group cut the abdomen open without ovariectomy (normal control group) was used as control group, and OVX mouse group in which physiological saline alone was administered to ovariectomized mice (negative control group) and SrCl2 mouse group in which a single compound, strontium chloride (SrCl2), was orally injected at a dose of 10 mg/kg/day (comparison group of […] compound administration) were used. 10-week-old Sham-operated and ovariectomized ddY female mice were purchased from Central Laboratory Animals Co. and transferred to a clean animal breeding area after a 1-week purifying period in the quarantine room of Experimental Animal Center in Ajou University. The weight of each mouse was measured and group separation was performed so that there was no statistically significant weight difference between the experimental groups. For the experiment, a test solution of Loganin was prepared as an aqueous solution and in order to bring in the laboratory animal center, a sterilization operation was carried out by irradiating with a gamma ray by a radiation irradiation professional company, Soyagreentec Co., Ltd. In the test group, Loganin was orally injected at a dose of 10 mg/kg/day for 12 weeks and blood estrogen level, estrogen receptor alpha expression level in uterus tissue, uterine size, body weight, and fat cell size of liver and abdominal adipose tissue were measured and analyzed.
An ordinary female climacteric symptom results in a significant reduction in female hormones, i.e. estrogen and progesterone. The amount of estradiol (17β-estradiol, E2) and progesterone which are estrogen in the blood was measured by ELISA after 12 weeks of administration of Loganin to female climacteric mouse model.

estrogen receptor alpha = assay: Estrogen receptor alpha mRNA and protein expression in uterus of climacteric mouse model; conditions: OVX mouse, 10 mg/kg/day oral, 12 weeks; for decrease of the estrogen receptor alpha protein in uterus section: immunohistochemistry, vs. OVX negative control (FIG. 7b); for decrease of mRNA expression of the estrogen receptor alpha in uterus: vs. OVX negative control (FIG. 7a)
Description: as §1
An ordinary female climacteric symptom results in a remarkable reduction in estrogen receptors in uterine tissue cells due to estrogen decrease. The estrogen receptor is activated by estradiol (17β-estradiol, E2) and has two classes of estrogen receptor alpha and estrogen receptor beta. In the uterus, the estrogen receptor alpha plays a more important role than the estrogen receptor beta, and during climacterium, a marked reduction in the estrogen receptor alpha causes contraction and degeneration of the uterus. The mRNA expression level of the estrogen receptor alpha gene and the estrogen receptor alpha protein expression level by immunohistochemistry of section of the uterus were analyzed after 12 weeks of administration of Loganin to climacteric mouse model followed by extirpating uterus.

[2] = system: ovariectomized ddY female mouse (OVX mouse); assay: Uterine contraction and degeneration (shape, size, thickness, weight) in climacteric mouse model; conditions: 10 mg/kg/day oral, 12 weeks; for outward shape and size of the uterus: vs. OVX negative control (FIG. 8a); for thickness of the H & E-stained uterine section: vs. OVX negative control (FIG. 8b); for weight of the uterus: vs. OVX negative control (FIG. 8c)
Description: as §1
An ordinary female climacteric symptom results in uterine contraction and degeneration due to estrogen decrease. The shape, size, thickness and weight of the uterus were observed after 12 weeks of administration of Loganin to female climacteric mouse model followed by extirpating uterus. When compared to normal Sham mouse without ovariectomy, the uterus was small (FIG. 8a), the thickness of the section was thin (FIG. 8b) and the uterine weight was light (FIG. 8c) in ovariectomized OVX mouse.

[3] = system: ovariectomized ddY female mouse (OVX mouse); assay: Body weight and blood insulin and leptin (ELISA) in climacteric mouse model; conditions: 10 mg/kg/day oral, 12 weeks; for increase in insulin in the blood / increase in leptin in the blood: ELISA; for increase in insulin in the blood: vs. OVX negative control (FIG. 9b); for increase in leptin in the blood: vs. OVX negative control (FIG. 9c); for weight gain (body weight): vs. OVX negative control (FIG. 9a)
Description: as §1
An ordinary female climacteric symptom results in weight gain due to estrogen decrease. The changes in body weight of mice and the presence of insulin and leptin, the metabolic hormone proteins, were measured by ELISA after 12 weeks of administration of Loganin to female climacteric mouse model.

[4] = system: ovariectomized ddY female mouse (OVX mouse); assay: Fat accumulation in liver and fat cell size in abdominal adipose tissue (H & E staining) in climacteric mouse model; conditions: 10 mg/kg/day oral, 12 weeks; for fat accumulation in the liver: H & E staining (FIG. 10a); for increase in fat cell size in the abdominal adipose tissue: H & E staining (FIG. 10b)
Description: as §1
In general, when estrogen is reduced in female climacterium, new estrogen is produced from adipocytes to offset the estrogen deficiency. In this process, more fat cells are produced and can cause abdominal obesity. In other words, fat accumulation in the liver and fat cell size increase in abdominal adipose tissue are caused by the increase of insulin and leptin, which are hormone proteins related to lipid metabolism. Liver and abdominal adipose tissues of mice were extirpated and H & E stained after 12 weeks of administration of Loganin to female climacteric mouse model.

SMILES	decrease level of estradiol (17β-estradiol, E2) in the blood [1]	decrease level of progesterone in the blood [1]	decrease of the estrogen receptor alpha protein in uterus section (estrogen receptor alpha)	decrease of mRNA expression of the estrogen receptor alpha in uterus (estrogen receptor alpha)	outward shape and size of the uterus [2]	thickness of the H & E-stained uterine section [2]	weight of the uterus [2]	increase in insulin in the blood [3]	increase in leptin in the blood [3]	weight gain (body weight) [3]	fat accumulation in the liver [4]	increase in fat cell size in the abdominal adipose tissue [4]
COC(=O)C1=CO[C@@H](O[C@@H]2O[C@H](CO)[C@@H](O)[C@H](O)[C@H]2O)[C@@H]2[C@@H](C)[C@@H](O)C[C@H]12 [Loganin]	significantly inhibited	significantly inhibited	significantly inhibited	significantly inhibited	significantly inhibited	significantly inhibited	significantly inhibited	significantly inhibited	significantly inhibited	significantly inhibited	remarkably inhibited	remarkably inhibited
[Cl-].[Cl-].[Sr+2] [SrCl2, strontium chloride]	no difference with OVX mouse	no difference with OVX mouse	no difference with OVX mouse	no difference with OVX mouse	no difference with OVX mouse	no difference with OVX mouse	no difference with OVX mouse	no difference with OVX mouse	no difference with OVX mouse	no difference with OVX mouse	no difference with OVX mouse	no difference with OVX mouse
